Here are results for 4 molecules from patent US6303619A, “Meta-substituted acidic 8-phenylxanthine antagonists of A3 human adenosine receptors” (priority 1998, dated 2001).

Data set [1] has as its system A3 adenosine receptor. As to the kind of experiment: mast cell degranulation in an animal model. The data set is classed as in vivo.
Excerpt: (§1) The release of enzymes, bioactive amines and arachidonic acid metabolites following mast cell activation causes vasoconstriction, edema, leukocyte accumulation, and ultimately, tissue damage. Mast cell degranulation is a component of myocardian reperfusion injury, hypersensitivity reactions (asthma, allergic rhinitis, and urticaria), ischemic bowel disease, autoimmune inflammation, and atopic dermatitis. Selective A3 adenosine receptor antagonists can be used to treat or prevent these diseases and pathologic effects that result from mast cell degranulation.
as §1, with “of: myocardial” for “of myocardian”, “inflammations, 20” for “inflammation,”, “The present invention relates to the use of highly specific meta-substituted 8-phenylxanthine” for “Selective”, “antagonists” for “antagonists can be used”

Data set [2] relates to mast cells isolated from rat peritoneum. The following applies: cited from earlier work.
Data set [3] concerns the target T1, human A3 adenosine receptor (Homo sapiens, UniProt P0DMS8).
T1 construct: clone HS-21a contained the complete open reading frame corresponding to the human homolog of the rat A3 adenosine receptor; expressed in transfected cells; host or cells: CHO cells stably transfected with HS-21a cDNA
T1 sequence (P0DMS8 1-318): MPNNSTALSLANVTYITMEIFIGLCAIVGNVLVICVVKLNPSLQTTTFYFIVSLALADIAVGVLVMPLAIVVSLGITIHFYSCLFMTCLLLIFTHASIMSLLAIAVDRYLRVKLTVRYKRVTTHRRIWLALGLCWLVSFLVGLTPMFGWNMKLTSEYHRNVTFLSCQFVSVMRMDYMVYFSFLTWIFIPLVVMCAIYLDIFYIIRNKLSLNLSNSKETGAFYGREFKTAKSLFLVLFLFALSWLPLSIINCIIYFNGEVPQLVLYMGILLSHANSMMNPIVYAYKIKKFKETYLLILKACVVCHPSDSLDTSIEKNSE
Nature of the data set: inhibition of forskolin-stimulated cAMP accumulation in stably transfected CHO cells expressing the human A3 receptor. It is filed as cell-based. On the procedure:
The human A3 adenosine receptor from a striatal cDNA library can be cloned using a probe derived from the homologous rat sequence.
cAMP Accumulation in Stable CHO Cell Lines
The changes in cAMP accumulation can alternatively be measured in stably transfected CHO cells expressing the human adenosine receptor subtypes. CHO cells are washed twice in phosphate buffered saline (PBS) and detached in 0.2% EDTA in PBS. The cells are pelleted at 800 rpm for 10 min and resuspended in KRH buffer (140 mM NaCl/5 mM KCl/2 mM CaCl2 /1.2 mM MgSO4 /1.2 mM KH2 PO4 /6 mM glucose/25 mM Hepes buffer, pH 7.4). The cells are washed once in KRH buffer and resuspended at 10^7 cells/mL. The cell suspension (100 μl) is mixed with 100 μl of KRH buffer containing 200 uM Ro 20-1724 and incubated at 37° C. for 10 minutes. Adenosine (10 uM) was added in 200 μl KRH buffer containing 200 uM Ro 20-1724 and incubated at 37° C. for 20 minutes. After the incubation, 400 μl of 0.5 mM NaOAc (pH 6.2) was added and the sample was boiled for 20 minutes. The supernatant was recovered by centrifugation for 15 minutes and stored at -70° C. cAMP levels were determined by radiommunoassay (RIANEN kit, DuPont/NEN) using the to acetylation protocol. The effect of antagonists on cAMP accumulation are measured by preincubation for 20 minutes before adding adenosine.
On the technique in general: Changes in cAMP serve as a functional read-out for many G protein-coupled receptors.

Data set [4] has as its system asthmatics. Particulars: not nonasthmatics; cited from earlier work.
In data set [5] the test system is hamster cheek pouch anerioles. As to the kind of experiment: vasoconstriction of hamster cheek pouch arterioles. From the text:
The constrictor response has classically been attributed to A1 adenosine receptor stimulation or interactions with the renin-angiotensin system. […] In the present invention, specific blockade of the A3 subtype of the adenosine receptor by a meta-substitutedphenylxanthine is effective to block the vasoconstrictive response induced through adenosine activation of this receptor subtype. The use of a meta-substituted phenylxanthine specific inhibitor of the A3 adenosine receptor subtype is effective to inhibit effects induced by adenosine mediated mast cell degranulation, and that disease states including but not limited to myocardial ischemia (Ito et al., Am. J. Physiol. 264 (Heart Circ. Physiol. 33):H I 346-H 1354, 1993), mastcell-dependent inflammation (Raud, J., Acta. Physiol. Scand. 135 (Suppl '578):I-58, 1989), brain arteriole diameter constriction (Rosenblum, W. I., Brain Res. 49:75-82, 1973), and the release of allergic mediators (Ramkumar et al., J. Biol. Chem. 268:16887-16890, 1993), are all amenable to prevention and treatment by contacting A3 receptor bearing mast cells with an amount of a meta-substituted phenylxanthine selective A3 inhibitor effective to prevent mast cell degranulation.

In data set [6] the test system is sheep A3 adenosine receptor. Particulars: cited from earlier work.
In data set [7] the test system is non-transfected CHO cells. Nature of the data set: 125I-ABA binding to membranes from non-transfected CHO cells. As to the method:
Membranes were prepared from stable CHO cell lines in 10 mM Hepes, pH 7.4 containing 0.1 mM benzamidine and 0.1 mM PMSF as described (Mahan, L. C. et al., (1991) Mol. Pharinacol. 40, 1-7). Pellets were resuspended in 5 mM Hepes, pH 7.4/5 mM MgCl2 /0.1 mM benzarnidine/0.1 mM PMSF at a protein concentration of 1-2 mg/mL and were incubated with adenosine deaminase (Boehringer Mannheim), 2 U/mL at 37° C. for 20 minutes. Saturation binding of ^125 I-ABA was carried out on 50 μg of membranes for 120 minutes at 25° C. in a total volume of 100 μl. […] Nonspecific binding was measured in the presence of 1 uM I-ABA. The KD and Bmax values were calculated by the EBDA program (McPherson, G. A. (1983) Computer Programs for Biomedicine 17, 107-114). Competition binding of agonists and antagonists was determined with ^125 I-ABA (0.17-2.0 nM, 2000 Ci/mmol). […] Binding data were analyzed and competition curves were constructed by use of the nonlinear regression curve fitting program Graph PAD InPlot, Version 3.0 (Graph Pad Software, San Diego). Ki values were calculated using the Cheng-Prusoff derivation (Cheng, Y. C. and Prusoff, H. R. (1973) Biochem. Pharmacol. 22, 3099-3108.).
The binding properties of the receptor encoded b HS-21a were evaluated on membranes prepared from CHO cells stably expressing the HS-21a cDNA. […]

Data set [8] addresses T1, human A3 adenosine receptor. As to the kind of experiment: 125I-ABA binding to membranes of stably transfected CHO cells expressing the human A3 adenosine receptor (HS-21a). On the procedure: Membranes were prepared from transiently transfected COS7 cells […] after transfection or from G418-selected stably transfected CHO or HEK 293 cells. Cells were harvested in 1 mM EDTA in phosphate buffered saline and centrifuged at 2000×g for 10 minutes. The cell pellet was washed once with phosphate buffered saline. The cell pellet was resuspended in 2 mL of 5 mM Tris, pH 7.6/5mM MgCl2. Membranes were prepared from the cells by freeze-thaw lysis in which the suspension was frozen in a dry ice/ethanol bath and thawed at 25° C. twice. The suspension was homogenized after adding an additional 2 mL of 5 mM Tris, pH 7.6/5 mM MgCl2, in a glass dounce homogenizer with 20 strokes. The membranes were pelleted at 40,000×g at 4° C. for 20 minutes. The membrane pellet was resuspended at a protein concentration of 1-2 mg/mL in binding assay buffer, 50 mM Tris, pH 7.6/10 mM MgCl2. Protein concentration was determined by the method of Bradford ((1976) Anal. Biochem. 72: 248-250). […] Saturation binding of [^125 I]-N^6 -aminiobenizyladenosine (125I-ABA) or [^125 I]-N^6 -2-(4-amino-3-iodophenyl)ethyladenosine (APNEA) was performed on membranes prepared from pSVLA3 transfected COS7 cells. Membranes (100 μg) were incubated in the presence of 0.2 U/mL adenosine deaminase with increasing concentrations of ^125 I-ABA in the range of 0.1-30 nM for 120 minutes at 25° C. in a total volume of 500 μl. The binding assay was terminated by rapid filtration and three washes with ice-cold 50 mM Tris, pH 7.6/10 mM MgCl2 on a Skatron cell harvester equipped with a receptor binding flitermat (SKATRON INSTRUMENTS, INC). Non-specific binding was determined on non-transfected cells. Bound radioactivity was measured by scintillation counting in Ready Safe Scintillation Cocktail (BECKMAN).
The 1.7 kb HS-21a cDNA (A3) was subcloned as a SalI-BamHl fragment into the expression vector pCMV5 (Mumby, S. M., Heukeroth, R. O., Gordon, J. I. and Gilman, A. G. (1990) Proc. Natl. Acad. Sci. USA 87, 728-732.) creating the vector pCMV5-A3. CHO or HEK 293 cells stably expressing the human HS-21 a cDNA were prepared by co-transfection of 15 μg pCMV5-A3 and 1 μg pWLneo (Stratagene) using the calcium phosphate method. Stable cell lines were also generated using EBV based mammalian expression vectors, pREP (INVITROGEN). Neomycin resistant colonies were selected in 1 mg/mL G418 (GIBCO). Stable colonies were screened for expression of HS-21a by ^125 I-ABA binding.
Membranes were prepared from stable CHO cell lines in 10 mM Hepes, pH 7.4 containing 0.1 mM benzamidine and 0.1 mM PMSF as described (Mahan, L. C. et al., (1991) Mol. Pharinacol. 40, 1-7). Pellets were resuspended in 5 mM Hepes, pH 7.4/5 mM MgCl2 /0.1 mM benzarnidine/0.1 mM PMSF at a protein concentration of 1-2 mg/mL and were incubated with adenosine deaminase (Boehringer Mannheim), 2 U/mL at 37° C. for 20 minutes. Saturation binding of ^125 I-ABA was carried out on 50 μg of membranes for 120 minutes at 25° C. in a total volume of 100 μl. The assay was terminated by rapid filtration and three washes with ice-cold binding buffer on a Skatron harvester equipped with a receptor binding filtermat (Skatron Instruments, Inc.). The specific activity of ^125 I-ABA, initially 2,200 Ci/mmol, was reduced to 100 Ci/mmol with nonradioactive I-ABA for saturation analysis. Nonspecific binding was measured in the presence of 1 uM I-ABA. The KD and Bmax values were calculated by the EBDA program (McPherson, G. A. (1983) Computer Programs for Biomedicine 17, 107-114). Competition binding of agonists and antagonists was determined with ^125 I-ABA (0.17-2.0 nM, 2000 Ci/mmol). […] Binding data were analyzed and competition curves were constructed by use of the nonlinear regression curve fitting program Graph PAD InPlot, Version 3.0 (Graph Pad Software, San Diego).

Data set [9] shares this target. The description is as above. The following applies: 1 mM nonradioactive I-ABA.
The subject of data set [10] is myocardial ischemic injury. The following applies: inhibitor of mast cell degranulation; cited from earlier work.
Setting [11] is: 125I-ABA saturation binding, HS-21a stable CHO cell membranes.

Regarding `Nc1ncnc2c1ncn2[C@@H]1O[C@H](CO)[C@@H](O)[C@H]1O` [Adenosine, adenosine], the “induction of mast cell degranulation” value in data set [1] is “induce mast cell degranulation”. Besides, in data set [2], the “release of granule contents” value was “potentiates the release of granule contents”. The “inhibition of forskolin-stimulated cAMP accumulation” value in data set [3] (stably transfected CHO cells, human A3) was 30-40%. In data set [4], the bronchoconstriction entry is recorded as “produces bronchoconstriction in asthmatics but not in nonasthmatics”. In addition, the vasoconstrictor action entry in [5] was “vasoconstrictor action”.

The term Hill coefficient denotes a measure of the steepness of the concentration-response curve. Take `Nc1ccc(CNc2ncnc3c2ncn3[C@@H]2O[C@H](CO)[C@@H](O)[C@H]2O)cc1[125I]` [^125 I-ABA, N^6-(4-amino-3^125 iodobenzyl)adenosine]: in [6], the “binding / affinity of ligands in words” value is recorded as “binds”. In addition, the “specific binding to non-transfected cells” value in data set [7] was “No specific binding”. In data set [8] (setting [11]), the Bmax worked out at 258 fmol/mg protein and the Hill coefficient came out at 0.99. Further, the “agonist activity inferred from effect of uncoupling reagents on binding” value in [8] (HS-21a in stable CHO cell line) is given as “exhibits some agonist activity”.

For `Nc1ccc(CNc2ncnc3c2ncn3[C@@H]2O[C@H](CO)[C@@H](O)[C@H]2O)cc1I` [I-ABA], in [6], the agonist affinity order result was “I-ABA>APNEA>NECA≥R-PIA>>CPA”. For the same molecule, the “prevention of specific binding of 125I-ABA” value in data set [9] was “prevented”. In addition, the “agonist character (partial agonist)” value in data set [3] (human A3, stably transfected CHO cells) is reported as “partial agonist”.

As for `N#Cc1cc(NC(=O)C(=O)O)c(Cl)c(NC(=O)C(=O)O)c1` [lodoxamide], in [10], the “reduction of myocardial ischemic injury” value is “reduces myocardial ischemic injury”.
